What was measured:
[1] = Competitive activity assay (lactose as inhibitor, ONPG as substrate); type: biochemical; conditions: for Vmax: ONPG with lactose 6, 16 and 60 mM as competitive inhibitor; for Ki: competitive inhibition by lactose, ONPG as substrate
Protocol: The protocol for the above activity assay was repeated, but with the addition of lactose as an inhibitor. Lactose was added to final concentration of 6, 16 and 60 mM respectively.
The assay for the activity of β-gal, with lactose as substrate, is relatively complex and generally requires the use of HPLC. It was therefore decided to use a competitive activity assay instead. Lactose was therefore added together with ONPG to determine if the expressed enzymes did have an affinity for the natural substrate. Lactose would compete for the active site with ONPG and therefore the greater the inhibition the higher the affinity of lactose for that particular active site.
The results obtained were analysed with the aid of Michaelis Menten plots and the Ki values for lactose were determined using Graphpad Prism® version 5 for Windows, Graphpad Software, La Jolla Calif. USA.

[2] = ONPG activity assay of purified free β-gal; type: biochemical; conditions: for Vmax / Km: free enzyme
Protocol: (§1) Purified β-gal was assayed using a colorimetric activity assay. Both enzymes were assayed at varying substrate concentrations. The assay took place in phosphate buffer (93 mM Sodium phosphate, 1 mM MgCl2, 112 mM β-mercaptoethanol, pH 7.3) with varying amounts of substrate concentration. The assay was performed in a BioTek® PowerWave 340 spectrophotometer at 37° C. for 5 min with a reading taken every 5 s. The buffers were preincubated at 37° C. for 30 min prior to the assay.
The activity needed to be determined for both the wildtype and E537D mutant β-gal prepared for this study, since the addition of the His-tag could influence enzyme activity. The activity of β-gal was determined using the ONPG activity assay. The kinetic parameters (Km and Vmax) were determined using the Michaelis Menten equation and Graphpad Prism® version 5 software for Windows, Graphpad Software, La Jolla Calif. USA.

[3] = Adsorption of β-gal onto Dynabeads (HIPD), BCA protein determination; type: binding; conditions: room temperature, optimal concentration
Protocol: To determine the amount (μg) of β-gal that was bound to Dynabeads® (HIPD), a BCA protein assay was performed according to the manufacturer's protocol. A standard curve with BSA was established in a range from 0 to 2 mg/ml. The analysis was performed at 540 nm.
A dilution series of purified β-gal wildtype and E537D mutant was prepared in a concentration range from 0 to 0.4 mg/ml. The dilution series was incubated with the beads (25 μl) for 10 min at 25° C. according to the manufacturer's protocol to ensure optimal adsorption of β-gal onto the beads. The beads were subsequently separated from the solution with a magnet and the supernatant was removed and analysed as described immediately above. The beads were then washed three times in dialysis buffer and the supernatant of the wash steps were also analysed for protein content.
The experimental procedure described above was repeated at 4 and 37° C.
Purified β-gal (wildtype and E537D mutant), was incubated with the beads (25 μl) at room temperature and optimal concentration to ensure maximum binding. The supernatant was removed from the solution at regular time intervals for 10 min. The collected fractions were assayed for protein content as described above. Analysis of β-gal bound to the beads took place with SDS-PAGE and Western blot analyses as outlined above.

[4] = Radioactive lactose binding assay (scintillation counting); conditions: 0.2 nmol β-gal/mg beads, 0.2 nmol 14C lactose, 5 min
Protocol: Immobilised β-gal (Wildtype and E537D mutant) (0.2 nmol β-gal/mg beads) was incubated with 0.2 nmol ^14C lactose in buffer (500 mM NaPO4, 300 mM NaCl, 5 mM sodium metabisulphate, 0.2% tween20, pH 8) for 5 min. The immobilised β-gal was then removed from the ^14C lactose solution with a magnet. The original 0.2 nmol C14 solution and the residual supernatant from the binding experiment were analysed with a scintillation counter.

[5] = Partition HPLC analysis of the 14C lactose binding assay; conditions: for hydrolysis of lactose during the binding experiment: binding assay supernatant, glucose peak at 4 min
Protocol: […] The immobilised β-gal was then removed from the ^14C lactose solution with a magnet. The original 0.2 nmol C14 solution and the residual supernatant from the binding experiment were analysed with a scintillation counter.
All HPLC analyses were carried out using a Carbohydrate Analysis column (Waters (WAT084038)) and a Radiomatic “Flo-one beta” A-100 radioactive flow detector at ambient temperature. An isochratic mixture of 20:80 water:acetonitrile was used as mobile phase at a flow rate of 2 ml/min. Scintillation fluid was pumped at 6 ml/min for radioactive detection. Retention times of ^14C glucose and ^14C lactose standards were determined separately. This was followed by analysis of the residual supernatant and original ^14C lactose solution from the lactose binding assay.

[6] = ONPG activity assay of immobilised wildtype β-gal; type: biochemical; conditions: immobilised on Dynabeads, ONPG as substrate
Protocol: as §1
70 μg β-gal (both E537D mutant and wildtype) were incubated for 10 min at 25° C. on a Vortex Genie 2 mixer (Healthcare technologies, South Africa) with 25 μl Dyanbeads® (HIPD). The immobilised β-gal was collected with the use of a magnet and the residual supernatant was removed for protein analysis. The beads were then washed three times and the wash supernatant was also kept and analysed for protein content.
The activity of the immobilized wildtype β-gal was determined with an ONPG activity assay as described earlier.

Row | Ki [1] [mM] | percentage binding of 14C lactose from solution [4] | hydrolysis of lactose during the binding experiment [5] | hydrolysis of lactose to glucose ([5]; incubation 20 min) | hydrolysis of lactose to glucose ([5]; incubation an hour (60 min)) | percentage binding of 14C lactose from solution ([4]; listed as immobilised wildtype enzyme) | Substance | Vmax [1] [µmol/min/mg] | activity lower/slower than the wildtype β-gal ([2]; ONPG activity, Vmax ratio) [×] | Vmax ([2]; ONPG as substrate (FIG. 19 B legend)) [μmol/min/protein] | Km ([2]; ONPG as substrate, 37° C.) [µM] | Vmax ([2]; ONPG as substrate, 37° C.) [μmol/min/mg protein] | incubation time for maximum adsorption [3] [min] | hydrolysis of lactose to glucose ([5]; incubation three hours) | Km [6] [µM] | Vmax [6] [µmol/min/mg] | Vmax ([2]; ONPG as substrate) [µmol/min/mg]
1 | 19 |  |  |  |  |  | E537D mutant: N-terminal His-tagged E. coli β-galactosidase with Glu537 replaced by Asp | 2 | 115 | 2 | 270 | 2 | 5 |  |  |  | 
2 |  | approximately 15% | the lactose had not been hydrolysed | relatively small glucose peak appeared | glucose peak had increased significantly |  | immobilised E537D mutant β-gal: His-tagged E537D mutant β-gal immobilised on Dynabeads (HIPD) cobalt magnetic beads |  |  |  |  |  |  | majority of the substrate had been converted to glucose |  |  | 
3 |  | not able to bind lactose | hydrolysed the lactose completely |  |  | approximately 2% | immobilised wildtype β-gal: His-tagged wildtype β-gal immobilised on Dynabeads (HIPD) cobalt magnetic beads |  |  |  |  |  |  |  | 1530 | 135 | 
4 | 12.4 |  |  |  |  |  | wildtype β-gal: N-terminal His-tagged wildtype E. coli β-galactosidase (lacZ product), expressed and IMAC purified [reference compound] | 230 |  |  | 220 | 230 | 5 |  |  |  | 230

Source: patent publication US10154673B2, “Method of removing lactose from a solution” (Stellenbosch University, priority 2014, dated 2018)
